Measurements: ChEMBL document CHEMBL4364294 (J Med Chem, 2019)

Experiment: Intrinsic clearance in human liver microsomes
Assay type: ADME, Microsome
Details: read-out: CLH

- predicted hepatic clearance: 18 mL/min/kg
SMILES: OC(CC1c2ccccc2-c2cncn21)C1CCCCC1 (stereo unspecified)
